pIC50: −log10 of the molar value. Where two headings read alike, the source gives them in different places.
Key:
A2AR = A2AR (Mus musculus, UniProt Q60613); conditions: for Score (locomotion / immobility): score observed in at least 60-100% of mice for 30 minutes
A2A receptor [1] = biological target: T1, A2A receptor (Homo sapiens, UniProt P29274); assay: Inhibition of cAMP production in HEK cells; type: cell-based; conditions: HEK-293 cells with A2A receptor
Caco-2 cells = assay: Permeability and efflux in Caco-2 cells; conditions: Caco-2 monolayer, 2 μM, 120 minutes, pH 7.4
Protocol: (§1) 2 μM dosing solutions for reference compounds and test compounds are prepared by spiking the appropriate volume of intermediate solution to TB with and without 1 μM Zosuquidar. The final concentration of DMSO is no more than 1% (v/v).
(§2) Caco-2 cells are grown in MEM supplemented with 2 mM L-glutamine, 10% FBS, 100 U/mL penicillin-G and 100 μg/mL streptomycin. The cells are incubated at 37° C., 5% CO2 and relatively saturated humidity. After reaching 80-90% confluency, the cells are gently detached with 0.05% trypsin-EDTA solution.
(§3) TB and dosing solutions were pre-warmed to 37° C. before transport assay. The cell monolayer was washed twice with HBSS containing 10 mM HEPES. For A-B (apical to basolateral) directional transport assay, 75 μL dosing solution is added to the apical well. Fill each basolateral well with 250 μL TB. For B-A (basolateral to apical) directional transport assay, 250 μL of dosing solution is added to the basolateral well after filling each apical well with 75 μL TB. […] The plates are incubated for 120 minutes at 37° C. with 5% CO2 and saturated humidity. The time zero samples are generated by mixing 50 μL initial dosing solution of test compound or reference compound with 100 μL TB and 250 μL quench solution (acetonitrile (ACN) or other appropriate solvent with internal standard(s), based on the bioanalytical method development). At 120 minutes, 150 μL of solution is collected from each A-B receiver well followed by addition of 250 μL quench solution to get A-B receiver sample. And for other samples (A-B donor, B-A donor and receiver), 50 μL of solution is collected from each corresponding well followed by addition of 250 μL quench solution and 100 μL TB. All samples are vortex-mixed and centrifuged at 3220 g for 20 minutes. Subsequently, supernatant is diluted with ultra pure water for LC-MS/MS analysis. The concentrations of test compound in all samples are determined by LC-MS/MS and expressed as peak area ratio of analyte to internal standard.
(§4) The concentration of samples is expressed using the peak area ratio of Analyte to Internal Standard (Analyte/IS).
(§5) The efflux ratio is calculated using the following equation: Efflux ratio=Papp(A−B)/Papp(B−A) • where Papp (A−B) and Papp (B−A) are the Papp values of compound in Apical to Basolateral and Basolateral to Apical directional transport, respectively.

in vitro = conditions: human, Caco-2, pH 7.4
Protocol: as §1, §2, §3, §4, §5

A2A receptor [2] = biological target: T1, A2A receptor; assay: Human IL-2 T cell assay (restoration of IL-2 production in CGS-21680-treated CD3+ T cells); type: cell-based; set-up: endogenous in cells; host or cells: human CD3+ T cells isolated from venous blood of healthy volunteers; conditions: for IC50: restoration of IL-2 production, human CD3+ T cells, anti-CD3/CD28 beads, 72 hours
Excerpt: When T-cells are activated, they produce pro-inflammatory cytokines. When the A2A receptor is activated in T cells, the amount of cytokines produced in response to stimulation of T-cells is reduced.
Venous blood from healthy volunteers, all of whom signed an informed consent approved by the Ethics Committee (FOR-UIC-BV-050-01-01 ICF_HBS_HD Version 5.0), was obtained via ImmuneHealth (Centre Hospitalier Universitaire Tivoli, La Louviere, Belgium). Mononuclear cells were collected by density gradient centrifugation, using SepMate-50 tubes (StemCell Technologies, Grenoble, France) and Lymphoprep (Axis-shield, Oslo, Norway) according to the manufacturer's instructions. CD3+ T cells were isolated by immunomagnetic negative selection, using the EasySep Human T Cell Isolation Kit (StemCell Technologies) as per manufacturer's instructions. CD3+ T cells were stored in heat inactivated foetal bovine serum (hiFBS; Gibco, ThermoFisher Scientific, Merelbeke, Belgium) containing 10% DMSO in liquid nitrogen.
Human purified CD3+ T cells were thawed and washed twice with RPMI1640 medium (with UltraGlutamine; Lonza, Verviers, Belgium) supplemented with 1× non-essential amino acids (Lonza), 2% Pen/Strep (Lonza) and 1 mM Sodium Pyruvate (Gibco) (complete media), containing 10% hiFBS. The cells were suspended either in complete media containing 20% hiFBS or in 100% heat inactivated human serum (hiHS; Sigma-Aldrich, Diegem, Belgium). Cells were activated by adding anti-CD3 and anti-CD28 coated microbeads (Dynabeads human T-activator CD3/CD28; Life Technologies, Paisley, UK), suspended either in complete media containing 20% hiFBS or in 100% hiHS. […] Serial dilutions of the compounds of the present invention were prepared and added to the wells. The cells were placed in a 37° C. humidified tissue culture incubator with 5% CO2 for 72 hours. After 72 hours, supernatants were sampled and IL-2 was quantified using the IL-2 (human) AlphaLISA Biotin-Free Detection Kit (AL333F; Perkin-Elmer, Zaventem, Belgium), according to the manufacturer's instructions.

[3] = IC50 (nM) (3 nM NECA as agonist, 0.1% BSA), 3 nM NECA as agonist, 0.1% BSA
[4] = IC50 (nM) (5 μM Adenosine as agonist, 2.0% HSA), 5 μM Adenosine as agonist, 2.0% HSA
[5] = IC50 (nM) (5 nM NECA as agonist, 2% HSA), 5 nM NECA as agonist, 2% HSA
[6] = IC50 (nM) (5000 nM CGS-21680 as agonist, 50% HSA), 5000 nM CGS-21680, 50% HSA
[7] = IC50 (nM) (500 nM CGS-21680 as agonist, 10% FBS), 500 nM CGS-21680, 10% FBS

T1 sequence (P29274 whole entry): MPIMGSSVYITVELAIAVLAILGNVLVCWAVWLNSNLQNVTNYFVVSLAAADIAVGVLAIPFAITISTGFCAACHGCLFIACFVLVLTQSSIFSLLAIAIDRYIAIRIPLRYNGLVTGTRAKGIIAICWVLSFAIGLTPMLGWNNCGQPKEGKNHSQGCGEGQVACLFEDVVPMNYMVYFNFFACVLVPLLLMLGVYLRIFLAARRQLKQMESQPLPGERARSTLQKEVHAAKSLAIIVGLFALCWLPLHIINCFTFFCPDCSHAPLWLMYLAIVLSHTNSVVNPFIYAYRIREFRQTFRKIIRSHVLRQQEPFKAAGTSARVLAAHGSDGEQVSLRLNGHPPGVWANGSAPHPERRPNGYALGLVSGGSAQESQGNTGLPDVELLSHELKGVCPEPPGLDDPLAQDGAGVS
A2AR, sequence (Q60613 whole entry): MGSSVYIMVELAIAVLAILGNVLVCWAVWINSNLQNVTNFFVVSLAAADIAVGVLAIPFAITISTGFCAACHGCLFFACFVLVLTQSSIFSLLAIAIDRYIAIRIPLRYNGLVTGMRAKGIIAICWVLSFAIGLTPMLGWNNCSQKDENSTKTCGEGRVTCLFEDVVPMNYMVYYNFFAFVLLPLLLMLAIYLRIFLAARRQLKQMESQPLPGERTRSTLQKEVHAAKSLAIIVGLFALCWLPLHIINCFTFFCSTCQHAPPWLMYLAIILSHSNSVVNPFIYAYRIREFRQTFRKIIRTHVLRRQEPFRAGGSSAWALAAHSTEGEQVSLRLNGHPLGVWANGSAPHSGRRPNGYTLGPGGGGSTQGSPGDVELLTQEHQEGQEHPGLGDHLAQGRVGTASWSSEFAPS

| Structure (SMILES) | Score (locomotion / immobility) (A2AR; 1 mg/kg PO 30 min prior to CGS21680) | Score (locomotion / immobility) (A2AR; 10 mg/kg PO 30 min prior to CGS21680) | effect on CGS21680 induced immobility (A2AR; P.O. at 10 mg/kg, 30 min prior to CGS21680) | IC50 (A2A receptor [1]; [3]) [nM] | IC50 (A2A receptor [1]; [4]) [nM] | Efflux ratio (Caco-2 cells) | IC50 (A2A receptor [1]; [5]) [nM] | efflux ratio at 120 min, 2 μM (in vitro) | IC50 (A2A receptor [2]; [6]) [nM] | pIC50 (A2A receptor [2]) | IC50 (A2A receptor [2]; [7]) [nM] | IC50 (A2A receptor [2]; IC50 (nM) (500 nM CGS-21680 as agonist, 50% HSA), 500 nM CGS-21680, 50% HSA) |
| --- | --- | --- | --- | --- | --- | --- | --- | --- | --- | --- | --- | --- |
| COCCOc1ccc(N2CCN(CCn3ncc4c3nc(N)n3nc(-c5ccco5)nc43)CC2)cc1 [Preladenant] | + | 0 | inhibited CGS21680 induced immobility | – | – | – | – | – | – | – | – | – |
| Nc1nc2c(sc(=O)n2CCN2CCN(c3cc(O[C@H]4CNC[C@@H]4F)c(F)cc3F)CC2)c2nc(-c3ccco3)nn12 [Compound 92, 5-amino-3-(2-(4-(2,4-difluoro-5-(((3S,4S)-4-fluoropyrrolidin-3-yl)oxy)phenyl)piperazin-1-yl)ethyl)-8-(furan-2-yl)thiazolo[5,4-e][1,2,4]triazolo[1,5-c]pyrimidin-2(3H)-one] | – | – | – | 0.7 | 388 | 101 | – | – | – | – | – | – |
| Nc1nc2c(sc(=O)n2CCN2CCN(c3ccc(C(=O)O)cc3F)CC2)c2nc(-c3ccco3)nn12 [Compound 44, 4-(4-(2-(5-amino-8-(furan-2-yl)-2-oxothiazolo[5,4-e][1,2,4]triazolo[1,5-c]pyrimidin-3(2H)-yl)ethyl)piperazin-1-yl)-3-fluorobenzoic acid] | – | – | – | 0.5 | 127 | – | 11 | 69 | 33 | – | – | – |
| Nc1nc2c(sc(=O)n2CCN2CCN(c3ccc(OCc4c[nH]nn4)cc3F)CC2)c2nc(-c3ccco3)nn12 [Compound 1, 3-(2-(4-(4-((1H-1,2,3-triazol-4-yl)methoxy)-2-fluorophenyl)-piperazin-1-yl)ethyl)-5-amino-8-(furan-2-yl)thiazolo[5,4-e][1,2,4]triazolo[1,5-c]pyrimidin-2(3H)-one] | – | – | – | 0.6 | 511 | – | 9 | 48 | 120 | – | – | – |
| Nc1nc2c(sc(=O)n2CCN2CCN(c3ccc(OCC(=O)O)cc3F)CC2)c2nc(-c3ccco3)nn12 [Compound 35, 2-(4-(4-(2-(5-amino-8-(furan-2-yl)-2-oxothiazolo[5,4-e][1,2,4]triazolo[1,5-c]pyrimidin-3(2H)-yl)ethyl)piperazin-1-yl)-3-fluorophenoxy)acetic acid] | – | – | – | 0.7 | 378 | – | 13 | 26 | 84 | 8.41 | 0.6 | 0.5 |
| Nc1nc2c(sc(=O)n2CCN2CCN(c3ccc(OCc4nc[nH]n4)cc3F)CC2)c2nc(-c3ccco3)nn12 [Compound 49, 3-(2-(4-(4-((1H-1,2,4-triazol-3-yl)methoxy)-2-fluorophenyl)piperazin-1-yl)ethyl)-5-amino-8-(furan-2-yl)thiazolo[5,4-e][1,2,4]triazolo[1,5-c]pyrimidin-2(3H)-one] | – | – | – | 0.5 | 465 | – | 16 | 97 | 61 | – | – | – |
| Nc1nc2c(sc(=O)n2CCN2CCN(c3ccc(OCc4n[nH]c(=O)o4)cc3F)CC2)c2nc(-c3ccco3)nn12 [Compound 2, 5-((4-(4-(2-(5-amino-8-(furan-2-yl)-2-oxothiazolo[5,4-e][1,2,4]triazolo[1,5-c]pyrimidin-3(2H)-yl)ethyl)piperazin-1-yl)-3-fluorophenoxy)methyl)-1,3,4-oxadiazol-2(3H)-one] | – | – | – | 0.3 | 708 | – | 17 | 28 | 18 | – | 0.9 | – |
